Experimental data taken from ChEMBL document CHEMBL4613317, “Substituted Naphthalenediimide Compounds Bind Selectively to Two Human Quadruplex Structures with Parallel Topology” (ACS Med Chem Lett, 2020).
Calls of active or inactive are those of the source. The calls are words filed in the database; no cut-off is given here.

Experiments:
[1] = tested on: DNA; test: Binding affinity to human TERT hairpin duplex DNA assessed as change in melting temperature by UV-visible spectrophotometry; type: nucleic-acid assay
[2] = molecular target: Quadruplex DNA; test: Binding affinity to biotin-labeled human HTR G4-quadruplex DNA assessed as dissociation equilibrium binding constant by SPR analysis; type: nucleic-acid assay
[3] = tested on: Quadruplex DNA; test: Induction of parallel human TERT G4-quadruplex DNA structural changes up to 20 uM by circular dichroism analysis; type: nucleic-acid assay
[4] = tested on: Quadruplex DNA; test: Binding affinity to end quartet of (3+1) hybrid structure of human HTR G4-quadruplex DNA up to 20 uM by circular dichroism analysis; type: nucleic-acid assay
[5] = organism: Homo sapiens; test: Selectivity index, ratio of Kd for human HTR G4-quadruplex DNA to Kd for human TERT G4-quadruplex DNA by intrinsic fluorescence titration based fluorescence spectrophotometry
[6] = tested on: Quadruplex DNA; test: Binding affinity to G-quartet terminal of human TERRA G4-quadruplex RNA with parallel topology up to 20 uM by circular dichroism analysis; type: nucleic-acid assay
[7] = molecular target: Quadruplex DNA; test: Binding affinity to human HTR G4-quadruplex DNA assessed as dissociation equilibrium binding constant by intrinsic fluorescence titration based fluorescence spectrophotometry; type: nucleic-acid assay
[8] = tested on: Quadruplex DNA; test: Binding affinity to human TERT G4-quadruplex DNA assessed as change in melting temperature by UV-visible spectrophotometry; type: nucleic-acid assay
[9] = tested on: Quadruplex DNA; test: Binding affinity to human HTR G4-quadruplex DNA assessed as change in melting temperature by UV-visible spectrophotometry; type: nucleic-acid assay
[10] = molecular target: Quadruplex DNA; test: Binding affinity to biotin-labeled human TERT G4-quadruplex DNA assessed as dissociation equilibrium binding constant by SPR analysis; type: nucleic-acid assay
[11] = organism: Homo sapiens; test: Selectivity index, ratio of Kd for biotin-labeled human HTR G4-quadruplex DNA to Kd for biotin-labeled human TERRA G4-quadruplex RNA by SPR analysis
[12] = tested on: Quadruplex DNA; test: Induction of parallel human TERRA G4-quadruplex RNA structural changes up to 20 uM by circular dichroism analysis; type: nucleic-acid assay
[13] = tested on: Quadruplex DNA; test: Binding affinity to G-quartet terminal of human TERT G4-quadruplex DNA with parallel topology up to 20 uM by circular dichroism analysis; type: nucleic-acid assay
[14] = tested on: Quadruplex DNA; test: Induction of (3+1) hybrid structural changes of human HTR G4-quadruplex DNA to antiparallel structure at 20 uM by circular dichroism analysis; type: nucleic-acid assay
[15] = molecular target: Quadruplex DNA; test: Binding affinity to human TERRA G4-quadruplex RNA assessed as dissociation equilibrium binding constant by fluorescence anisotropy titration based fluorescence spectrophotometry; type: nucleic-acid assay
[16] = organism: Homo sapiens; test: Selectivity index, ratio of Kd for human HTR G4-quadruplex DNA to Kd for human TERRA G4-quadruplex RNA by fluorescence spectrophotometry
[17] = molecular target: DNA; test: Binding affinity to biotin-labeled duplex DNA AAAGAACTTT (unknown origin) assessed as dissociation equilibrium binding constant by SPR analysis; type: nucleic-acid assay
[18] = molecular target: Quadruplex DNA; test: Binding affinity to biotin-labeled human TERRA G4-quadruplex RNA assessed as dissociation equilibrium binding constant by SPR analysis; type: nucleic-acid assay
[19] = molecular target: Quadruplex DNA; test: Binding affinity to human TERT G4-quadruplex DNA assessed as dissociation equilibrium binding constant by intrinsic fluorescence titration based fluorescence spectrophotometry; type: nucleic-acid assay
[20] = organism: Homo sapiens; test: Selectivity index, ratio of Kd for biotin-labeled human HTR G4-quadruplex DNA to Kd for biotin-labeled human TERT G4-quadruplex DNA by SPR analysis

Compound	ΔTm [1] [°C]	Kd [2] [nM]	Activity [3]	Activity [4]	Selectivity Index [5]	Activity [6]	Kd [7] [nM]	ΔTm [8] [°C]	ΔTm [9] [°C]	Kd [10] [nM]	Selectivity Index [11]	Activity [12]	Activity [13]	Activity [14]	Kd [15] [nM]	Selectivity Index [16]	Kd [17] [nM]	Kd [18] [nM]	Kd [19] [nM]	Selectivity Index [20]
O=C1c2cc(-c3ccc(CN4CCCC4)cc3)c3c4c(cc(NCCN5CCCC5)c(c24)C(=O)N1CCCN1CCOCC1)C(=O)N(CCCN1CCOCC1)C3=O [QN-302]	2	28	inactive	Active	5	Active	29	18	10	4	5	inactive	Active	Active	2	5	> 100	3	4	–
O=C1c2ccc3c4c(c(NCCN5CCCC5)cc(c24)C(=O)N1CCCN1CCOCC1)C(=O)N(CCCN1CCOCC1)C3=O	2	82	inactive	Active	–	Active	94	13	5	12	5	inactive	Active	Active	3	5	> 100	4	16	7
CN1CCN(CCCNc2cc3c4c(c(NCCCN5CCN(C)CC5)cc5c4c2C(=O)N(CCCN2CCOCC2)C5=O)C(=O)N(CCCN2CCOCC2)C3=O)CC1	< 2	5	inactive	Active	–	Active	10	–	11	2	–	inactive	Active	Active	2	–	–	3	4	–
